Test [1] relates to H146. Put plainly: H146 small cell lung cancer murine model. The test is classed as in vivo. From the text: (H146 and SCLC xenograft) from human-derived small cell lung cancer isolated from smokers and nonsmokers, defective for Rb/p53 gene function, and expresseive of moderately high levels of Bcl-2.
Test [2] deals with U87MG. As to the kind of experiment: Tumor cell viability (TABLE 1). The settings on record: Homo sapiens, U-87 MG, read-out: EC50 (50% reduction in cell viability); U87MG (Glioma); serum-free conditions, 48 hour treatment; mean ± SEM. Format: cell-based.
The test system of test [3] is MCF7. Put plainly: Tumor cell viability (TABLE 1). Format: cell-based. Particulars: Homo sapiens, read-out: EC50 (50% reduction in cell viability); MCF7 (Breast); serum-free conditions, 48 hour treatment; mean ± SEM.
The subject of test [4] is NCI-H322M. Put plainly: Tumor cell viability (TABLE 1). Format: cell-based. Particulars: Homo sapiens, read-out: EC50 (50% reduction in cell viability); NCI-H322M (Non-Small Cell Lung); serum-free conditions, 48 hour treatment; mean ± SEM.

One compound from patent US20050159427A1, “N-acylsulfonamide apoptosis promoters” (priority 2003, published 2005) can be followed below.

By EC50 is commonly meant the concentration giving half of the maximal effect. In the case of `CN(C)CC[C@H](CSc1ccccc1)Nc1ccc(S(=O)(=O)NC(=O)c2ccc(N3CCN(Cc4ccccc4-c4ccc(Cl)cc4)CC3)cc2)cc1[N+](=O)[O-]` [EXAMPLE 2, N-(4-(4-((4′-chloro(1,1′-biphenyl)-2-yl)methyl)piperazin-1-yl)benzoyl)-4-(((1R)-3-(dimethylamino)-1-((phenylsulfanyl)methyl)propyl)amino)-3-nitrobenzenesulfonamide], the tumor regression entry in test [1] (H146 model, in some cases tumor disappearance after prolonged therapy) is “complete regression of an established tumor”. In addition, the anti-tumor activity result in test [1] (H146 murine model, human-derived small cell lung cancer) is recorded as “demonstrated anti-tumor activity”. For the same compound, the 50% effective concentration (EC50) in test [2] turned out to be 2.7 ± 1.8 µM; in test [3], 2 ± 0.8 µM; in test [4] it was 4.1 ± 0.8 µM.
